This passage reports inhibition results from patent US20060106038A1, “Methods for treating and/or preventing aberrant proliferation of hematopoietic cells” (ICOS CORPORATION, priority 2004, published 2006).

Like-named read-outs stand apart in the source and are kept apart here.

In assay [1] the test system is myeloid and erythroid colony formation. Briefly: Methylcellulose clonogenic assay. The assay is classed as cell-based. The following applies: PI3Kδ selective inhibitor at 10 μM.
The subject of a further assay is AML cells. Briefly: Cell proliferation assay, [3H]-Thymidine incorporation, AML cells. The assay is classed as cell-based. The conditions noted are these: Homo sapiens, 48 h, PI3Kδ selective inhibitor 10 μM, rapamycin 50 ng/ml. The protocol:
Cell proliferation assays were conducted to determine whether PI3K inhibition contributes to AML cell viability. In most PI3K-positive samples tested, the mTOR pathway was activated as assessed by phosphorylation of P70S6K protein on Threonine 389. Thus, proliferation assays were also conducted to determine whether mTOR contributes to AML cell viability. Accordingly, proliferation assays were performed on AML cells with or without the following inhibitor compounds: LY294002, a PI3Kδ selective inhibitor, rapamycin, or a combination of the PI3Kδ selective inhibitor and rapamycin. Cell proliferation was determined by measuring DNA synthesis by [3H]-Thymidine incorporation. Comparative experiments were performed on CD34+ cord blood cells.
For AML cells (obtained as previously described in Example 1), BMMCs were cultured at 3×10^5/ml in alpha medium containing 5% fetal calf serum (FCS) without cytokines for 48 hours, with or without the following inhibitors: LY294002 at 25 μM, PI3Kδ selective inhibitor at 10 μM, rapamycin at 50 ng/ml, or an association of a PI3Kδ selective inhibitor and rapamycin, and incubated in 96-well plates in triplicate. [^3H]-Thymidine was added for a final 6 hour pulse, and the amount of radioactivity incorporated in cells was determined by trichloracetic acid (TCA) precipitation. […] DNA synthesis was measured by [^3H]-Thymidine incorporation after […].

For `O=c1cc(N2CCOCC2)oc2c(-c3ccccc3)cccc12` [LY294002], the inhibition at 10 µM in assay [1] was 95%.

As to `CO[C@H]1C[C@@H]2CC[C@@H](C)[C@@](O)(O2)C(=O)C(=O)N2CCCC[C@H]2C(=O)O[C@H]([C@H](C)C[C@@H]2CC[C@@H](O)[C@H](OC)C2)CC(=O)[C@H](C)/C=C(\C)[C@@H](O)[C@@H](OC)C(=O)[C@H](C)C[C@H](C)/C=C/C=C/C=C/1C` [rapamycin], the inhibition at 10 µM worked out at 64% with AML cells (PI3K-positive AML samples, read-out: inhibition of proliferation of leukemic cells) and 29% with AML cells (representative PI3K-negative AML cell sample, read-out: inhibition of proliferation of leukemic cells (mean values)).
